Laboratory results published in EPA's ToxValDB 9.5.
Converted amounts (≈) assume the structure as drawn. “And” between values parts separate entries of the source, which are not always exact repeats. Equal entries are not always repeated.

What was measured:
Oryctolagus sp. [1] = test: LD0; higher = less toxic; settings: acute; dermal
Rattus norvegicus [2] = test: LD0; higher = less toxic; settings: acute; injection; subcutaneous
Cavia porcellus [3] = test: LD0; higher = less toxic; settings: acute; injection; subcutaneous; Guinea Pig
Canidae [4] = test: LD0; higher = less toxic; settings: acute; injection; intravenous; Dog Other
Oryctolagus sp. [5] = settings: for LD50: acute
Rattus norvegicus [6] = settings: for LC50 / LD50: acute
Cavia porcellus [7] = settings: acute; oral; Guinea Pig
Mus musculus [8] = test system: Mus musculus
Rattus norvegicus [9] = settings: subchronic, oral
Mus musculus [10] = test: LD100; higher = less toxic; settings: acute
Sus scrofa = settings: subchronic; duration: 90 days; oral; diet; M/F; Not specified; Urinary, Hepatic
Rattus norvegicus [11] = test: LC10; higher = less toxic; settings: acute; inhalation; Sprague-Dawley
Oryctolagus sp. [12] = test: LD40; higher = less toxic; settings: acute; dermal; occlusive; New Zealand
Rattus norvegicus [13] = test: LD40; higher = less toxic; settings: acute; oral; gavage; Sprague-Dawley
Canidae [14] = settings: chronic; duration: 1 years; oral; diet; Dog Other; Blood: Cholinesterase inhibition + Testis: Effects + Uterus: Effects
Canidae [15] = settings: chronic; oral; diet; M/F; Dog Other; rbc and plasma cholinesterase inhibition, and testicular and uterine effects
Rattus norvegicus [16] = settings: Hershberger; duration: 10 days; oral; gavage; Sprague-Dawley; inactive + Negative + Negative + neither + negative
[17] = subchronic, duration: 13 weeks, oral, diet, Fischer 344
[18] = subchronic, duration: 13 weeks, oral, diet, B6C3F1
[19] = gavage, M, Sprague-Dawley, Clinical Observation: Salivation (transient) + Functional Observational Battery: Salivation Spontaneous motor activity (total ambulatory …

In the case of NC(=Nc1ccccc1)Nc1ccccc1 [1,3-Diphenylguanidine], the LD0 (Oryctolagus sp. [1]) is reported as over 2000 mg/kg, the LD0 (Rattus norvegicus [2]) is reported as 50 mg/kg and the LD0 (Cavia porcellus [3]) is reported as 200 mg/kg. For the same molecule, the LD0 (Canidae [4]) was 25 mg/kg, the LD50 (Oryctolagus sp. [5]; oral) was 250 mg/kg and 246 mg/kg and the NOAEL (Rattus norvegicus [6]; developmental, duration: 10 days, oral, gavage, Sprague-Dawley) was 25 mg/kg-day. For the same molecule, the NOAEL (Rattus norvegicus [6]; reproduction developmental, duration: 13 weeks, oral, diet, Fischer 344, generation: F0) was 750 ppm, the NOAEL (Rattus norvegicus [6]; reproduction developmental, duration: 10 days, oral, gavage, F, Sprague-Dawley) was 5 mg/kg-day and 10 mg/kg-day and the LOAEL (Rattus norvegicus [6]; short-term, duration: 14 days, oral, diet, Sprague-Dawley) was 300 ppm. The NOAEL (Rattus norvegicus [6]; short-term, duration: 28 days, oral, diet) was 100 ppm, the LOAEL (Rattus norvegicus [6]; [17]) was 72 mg/kg-day and the NOAEL (Rattus norvegicus [6]; [17]) was 48 mg/kg-day. The NOAEL (Rattus norvegicus [6]; subchronic, duration: 90 days, oral, diet, Sprague-Dawley) was 14.4 mg/kg-day, the LD50 (Cavia porcellus [7]) was 250 mg/kg and the LD50 (Mus musculus [8]; acute, injection, Intraperitoneal) was 75 mg/kg and ≥ 25 mg/kg and ≤ 50 mg/kg. The NOAEL (Mus musculus [8]; developmental, duration: 19 days, oral, gavage, ICR) was at least 10 mg/kg-day, the NOAEL (Mus musculus [8]; reproduction developmental, duration: 8 weeks, oral, gavage, CD1, generation: F0) was at least 16 mg/kg-day and the NOAEL (Mus musculus [8]; reproduction developmental, duration: 19 days, oral, gavage, F, ICR) was 4 mg/kg-day. It also gave an LOAEL (Mus musculus [8]; [18]) of 148 mg/kg-day, an NOAEL (Mus musculus [8]; [18]) of 98.5 mg/kg-day and an NOEL (Rattus norvegicus [9]; diet, F, Fischer 344, Deaths + Clinical Observation: Ruffled fur Emacation Pale skin + Body Weight Changes: decrease + Food Consumption: decrease + Hematology: …) of under 17 mg/kg-day. The NOEL (Rattus norvegicus [9]; diet, M/F, Fischer 344, Deaths + Clinical Observation: Ruffled fur Emacation Pale skin + Body Weight Changes: decrease + Food Consumption: decrease + Hematology: …) was under 24 mg/kg-day, the LD100 (Mus musculus [10]; injection, subcutaneous) was 50 mg/kg and the LD100 (Mus musculus [10]; oral) was 450 mg/kg.
Work on CCOCCOCCO [2-(2-Ethoxyethoxy)ethanol] yielded an NOAEL (Rattus norvegicus [9]; duration: 60 days, gavage, M, CD(BR), Deaths + Clinical Observation: Bloody urine LethargyProstration PiloerectionUnkempt hair coat Blood around the mouth and nose + Body Weight …) of 1340 mg/kg-day, an NOAEL (Rattus norvegicus [9]; duration: 90 days, diet, M/F, CFE, Body Weight Changes: Terminal body weight decrease% + Food Consumption: decrease% + Urinalysis: Oxalate crystals increase% + Hematology: …) of 0.5% and an NOAEL (Sus scrofa) of 167 mg/kg-day.
For CC(C)C#N [2-Methylpropanenitrile], the LD50 (Oryctolagus sp. [5]; dermal, occlusive, New Zealand) was 239 mg/kg, the LC50 (Rattus norvegicus [6]; inhalation, Sprague-Dawley) was over 2830 mg/m3 and the LC50 (Rattus norvegicus [6]; inhalation, albino) was ≥ 1410 mg/m3 and ≤ 2830 mg/m3. The LD50 (Rattus norvegicus [6]; oral) was > 50 mg/kg and ≤ 100 mg/kg, the LD50 (Rattus norvegicus [6]; oral, gavage) was 77 mg/kg and the NOAEL (Rattus norvegicus [6]; reproduction developmental, duration: 6 days, inhalation, F, Sprague-Dawley) was 283 mg/m3. For the same molecule, the LC10 (Rattus norvegicus [11]) was 3320 mg/m3.
For Cc1ccncc1 [4-Methylpyridine], the LD40 (Oryctolagus sp. [12]) was ≥ 200 mg/kg and ≤ 316 mg/kg, the LD50 (Oryctolagus sp. [5]; dermal, occlusive, New Zealand) was ≥ 126 mg/kg and ≤ 200 mg/kg and the LD50 (Rattus norvegicus [6]; oral, gavage, Sprague-Dawley) was 841 mg/kg and 700 mg/kg. For the same molecule, the LOEL (Rattus norvegicus [9]; [19]) was 20 mg/kg-day and the NOEL (Rattus norvegicus [9]; [19]) was 5 mg/kg-day.
With CNC(=O)Oc1cccc2c1OC(C)(C)C2 [Carbofuran] the LD40 (Rattus norvegicus [13]) was 5.6 mg/kg, the LD50 (Oryctolagus sp. [5]; dermal, semiocclusive, New Zealand) was under 2000 mg/kg and the NOAEL (Oryctolagus sp. [5]; reproduction developmental, oral, gavage, F, New Zealand) was at least 2 mg/kg-day. The LC50 (Rattus norvegicus [6]; inhalation, particle, Sprague-Dawley) was 0.05 µg/mL (≈ 0.226 µM), the LD50 (Rattus norvegicus [6]; oral, diet, Sprague-Dawley) was 5.3 mg/kg and 13.2 mg/kg and the LD50 (Rattus norvegicus [6]; oral, gavage, Sprague-Dawley) was 7 mg/kg and 8.8 mg/kg and 13.3 mg/kg. The NOAEL (Rattus norvegicus [6]; developmental, duration: 14 days, oral, diet, Sprague-Dawley) was 160 ppm, the NOAEL (Rattus norvegicus [6]; reproduction developmental, duration: 14 days, oral, diet, F, Sprague-Dawley) was 20 ppm and the NOAEL (Rattus norvegicus [6]; reproduction developmental, oral, diet, Crl:CD(SD)) was 20 ppm. It also gave an NOEL (Canidae [14]) of 0.5 mg/kg-day, an LEL (Canidae [15]) of 12.5 mg/kg-day and an NOEL (Canidae [15]) of 0.5 mg/kg-day. It also gave an NOEL (Rattus norvegicus [16]) of 0.3 mg/kg-day.
